Measured values from patent publication US20180153995A1, “USE OF ANTIMICROBIAL POLYMERS FOR RE-SENSITIZATION OF MICROORGANISMS UPON EMERGENCE OF RESISTANCE TO ANTI-MICROBIAL AGENTS” (Technion Research & Development Foundation Limited, priority 2008, published 2018).
Several values for one entry are separate records, joined by “and”; a condition that tells them apart may be missing. Equal entries are not always repeated. Where two headings read alike, the source gives them in different places.

Experiments:
E. coli 14384 = assay: Antibiotic MIC by microdilution with or without sub-MIC polymer; assay type: cell-based, Escherichia coli; details: E. coli 14384
Summary of the method: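 After 24 h incubation at 37° C, proliferation measured by optical density at 620 nm against calibration standards. Bacteria seeded at 10^5 per ml into 2-fold dilution series of either polymer alone or antibiotic plus […].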

E. coli 16327 = assay: microbe, parasite or virus in culture
E. coli 16329 = assay type: cell-based, Escherichia coli
Summary of the method: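 Bacterial suspensions (100 μl) were added to 100 μl of culture medium carrying 2-fold serially diluted antibiotic together with a fraction of the polymer's MIC, or to plain medium as control. Plates were incubated 24 hours at 37° C, and proliferation was read at 620 nm against calibration standards. Starting inoculum was 10^5 bacteria per ml.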

E. coli 14182 = assay: Antibiotic MIC by microdilution with or without sub-MIC polymer; assay type: cell-based, Escherichia coli
S. maltophila 748 = assay: as above; assay type: cell-based, Stenotrophomonas maltophila
[1] = tested on: E. coli K-12 efflux knockout mutant; assay type: cell-based, Escherichia coli; details: E. coli AG100A (efflux−)
Summary of the method: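 Broth microdilution, inocula 10^5 bacteria/ml, 24 h at 37 °C. Growth read as OD620 against calibration standards.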

[2] = tested on: E. coli K-12 resistant wild type; assay type: cell-based, Escherichia coli; details: E. coli AG100 (w.t.)
[3] = polymer at ½ of its MIC (Table 16)
[4] = the OAK at ¼ of its MIC (Table 17)
[5] = the OAK at ½ of its MIC (Table 17)

Compound: Cc1onc(-c2ccccc2)c1C(=O)N[C@@H]1C(=O)N2[C@@H]1SC(C)(C)[C@@H]2C(=O)O [Oxacillin, oxacillin]
- Antibiotic MIC in presence of C12K(NC8K)7NH2 (SEQ ID NO: 4), +½ MIC (E. coli 14384; polymer at ½ of its MIC): >512 µg/mL
- Antibiotic MIC in presence of C12K(NC8K)7NH2 (SEQ ID NO: 4), +⅓ MIC (E. coli 14384; polymer at ⅓ of its MIC): >512 µg/mL
- Antibiotic MIC (E. coli 16327): 512 µg/mL and >512 µg/mL
- Antibiotic MIC (E. coli 16327; E. coli 16327, +¼ MIC (1.6 μM) C12K(KNC12K)2NH2): >512 µg/mL
- Antibiotic MIC (E. coli 16327; E. coli 16327, +½ MIC (3.12 μM) C12K(KNC12K)2NH2): 512 µg/mL
- Antibiotic MIC (E. coli 16327; E. coli 16327, +⅓ MIC (2.1 μM) C12K(KNC12K)2NH2): >512 µg/mL
- Antibiotic MIC (E. coli 16327; E. coli 16327, no polymer (None), Table 9): >512 µg/mL
- Antibiotic MIC (E. coli 16327; E. coli 16327, no polymer (None), Table 10): >512 µg/mL
- Antibiotic MIC (E. coli 16327; E. coli 16327, no polymer (None), Table 12): >512 µg/mL
- MIC, ¼ + MIC OAK (E. coli 16327; E. coli U16327, with C12K(KNC10K)3NH2 (SEQ ID NO: 10) at ¼ of its MIC): >512 µg/mL
- MIC, ⅓ + MIC OAK (E. coli 16327; E. coli U16327, with C12K(KNC10K)3NH2 (SEQ ID NO: 10) at ⅓ of its MIC): >512 µg/mL
- Antibiotic MIC, None (E. coli 16327; E. coli U-16327, antibiotic alone (Table 15)): >512 µg/mL
- Antibiotic MIC in presence of C12K(NC8K)7NH2 (SEQ ID NO: 4), +¼ MIC (E. coli 16327; E. coli U-16327, polymer at ¼ of its MIC): >512 µg/mL
- Antibiotic MIC in presence of C12K(NC8K)7NH2 (SEQ ID NO: 4), +½ MIC (E. coli 16327; E. coli U-16327, polymer at ½ of its MIC): 512 µg/mL
- Antibiotic MIC in presence of C12K(NC8K)7NH2 (SEQ ID NO: 4), +⅓ MIC (E. coli 16327; E. coli U-16327, polymer at ⅓ of its MIC): >512 µg/mL
- MIC (E. coli 16327; Escherichia coli, 16327, read-out: MIC, Alone): > 512 µg/mL
- Antibiotic MIC (E. coli 16329): >512 µg/mL
- Antibiotic MIC (E. coli 16329; E. coli 16329, no polymer (None), Table 10): >512 µg/mL
- Antibiotic MIC (E. coli 16329; E. coli U-16329, +¼ MIC C12K(NC8K)5NH2): >512 µg/mL
- Antibiotic MIC (E. coli 16329; E. coli U-16329, +½ MIC C12K(NC8K)5NH2): >512 µg/mL
- Antibiotic MIC (E. coli 16329; E. coli U-16329, +⅓ MIC C12K(NC8K)5NH2): >512 µg/mL
- Antibiotic MIC, None (E. coli 16329; E. coli U-16329, antibiotic alone (Table 15)): >512 µg/mL
- Antibiotic MIC (E. coli 16329; E. coli U-16329, no polymer (None), Table 14): >512 µg/mL
- Antibiotic MIC in presence of C12K(NC8K)7NH2 (SEQ ID NO: 4), +¼ MIC (E. coli 16329; E. coli U-16329, polymer at ¼ of its MIC): >512 µg/mL
- Antibiotic MIC in presence of C12K(NC8K)7NH2 (SEQ ID NO: 4), +½ MIC (E. coli 16329; E. coli U-16329, polymer at ½ of its MIC): 512 µg/mL
- Antibiotic MIC in presence of C12K(NC8K)7NH2 (SEQ ID NO: 4), +⅓ MIC (E. coli 16329; E. coli U-16329, polymer at ⅓ of its MIC): >512 µg/mL
- Antibiotic MIC (E. coli 14182; +½ MIC C12K(NC8K)5NH2): >512 µg/mL
- Antibiotic MIC, None (E. coli 14182; antibiotic alone (Table 15)): >512 µg/mL
- Antibiotic MIC (E. coli 14182; no polymer (None), Table 14): >512 µg/mL
- Antibiotic MIC in presence of C12K(NC8K)7NH2 (SEQ ID NO: 4), +¼ MIC (E. coli 14182; polymer at ¼ of its MIC): >512 µg/mL
- Antibiotic MIC in presence of C12K(NC8K)7NH2 (SEQ ID NO: 4), +½ MIC (E. coli 14182; polymer at ½ of its MIC): >512 µg/mL
- Antibiotic MIC in presence of C12K(NC8K)7NH2 (SEQ ID NO: 4), +⅓ MIC (E. coli 14182; polymer at ⅓ of its MIC): >512 µg/mL
- Antibiotic MIC (S. maltophila 748; +¼ MIC (1.6 μM) C12K(KNC12K)3NH2): 512 µg/mL
- Antibiotic MIC (S. maltophila 748; +½ MIC (3.12 μM) C12K(KNC12K)3NH2): 256 µg/mL
- Antibiotic MIC (S. maltophila 748; +⅓ MIC (2.1 μM) C12K(KNC12K)3NH2): 512 µg/mL
- Antibiotic MIC (S. maltophila 748; no polymer (None), Table 13): 512 µg/mL
- Antibiotic MIC, None ([1]; antibiotic alone (Table 16)): 0.5 to 1 µg/mL
- Antibiotic MIC, None ([1]; antibiotic alone (Table 17)): 0.5 to 1 µg/mL
- Antibiotic MIC in presence of C12K(NC8K)7NH2 (SEQ ID NO: 4), +¼ MIC ([1]; polymer at ¼ of its MIC (Table 16)): 0.5 to 1 µg/mL
- Antibiotic MIC in presence of C12K(NC8K)7NH2 (SEQ ID NO: 4), +½ MIC [1, 3]: 0.25 µg/mL
- Antibiotic MIC in presence of C12K(NC8K)7NH2 (SEQ ID NO: 4), +⅓ MIC ([1]; polymer at ⅓ of its MIC (Table 16)): 0.25 µg/mL
- Antibiotic MIC in presence of the OAK, +¼ MIC [1, 4]: 0.5 µg/mL
- Antibiotic MIC in presence of the OAK, +½ MIC [1, 5]: 0.25 µg/mL
- Antibiotic MIC in presence of the OAK, +⅓ MIC ([1]; the OAK at ⅓ of its MIC (Table 17)): 0.5 µg/mL
- Antibiotic MIC, None ([2]; antibiotic alone (Table 16)): 512 µg/mL
- Antibiotic MIC, None ([2]; antibiotic alone (Table 17)): 512 µg/mL
- Antibiotic MIC in presence of C12K(NC8K)7NH2 (SEQ ID NO: 4), +½ MIC [2, 3]: 32 to 64 µg/mL
- Antibiotic MIC in presence of the OAK, +¼ MIC [2, 4]: 256 µg/mL
- Antibiotic MIC in presence of the OAK, +½ MIC [2, 5]: 32 to 64 µg/mL
